For assay [1], the system named is CEMO-1. In words: Cell proliferation assay, CEMO-1 (ALL). The class given is cell-based, human. Conditions: Homo sapiens. The procedure:
(§1) Cell proliferation was analyzed after 48 hours of in vitro treatment using the CellTiter 96 Aqueous One Solution Cell Proliferation Assay (Promega, Madison, Wis.). This is a colorimetric method for determining the number of viable cells in proliferation.
(§2) For the assay, suspension cells were cultured by triplicate at a density of 1×10^6 cells/ml in 96-well plates (100.000 cells/well, 100 μl/well), except for OCILY-3 and OCILY-10 cell lines which were cultured at a density of 0.5×10^6 cells/ml (50.000 cells/well, 100 μl/well) and for HepG2, Hep3B and PLC/PRF/5 cell ines which were cultured at a density of 3000 cells/well, 100 μl/well). Adherent cells were obtained from 80-90% confluent flasks and 100 μl of cells were seeded at a density of 5000 cells/well in 96-well plates by triplicate. Before addition of the compounds, adherent cells were allowed to attach to the bottom of the wells for 12 hours. In all cases, only the 60 inner wells were used to avoid any border effects.
(§3) After 48 hours of treatment, plates with suspension cells were centrifuged at 800 g for 10 minutes and medium was removed. The plates with adherent cells were flicked to remove medium. Then, cells were incubated with 100 ul/well of medium and 20 ul/well of CellTiter 96 Aqueous One Solution reagent. After 1-3 hours of incubation at 37° C., absorbance was measured at 490 nm in a 96-well plate reader. The background absorbance was measured in wells with only cell line medium and solution reagent. Data was calculated as a percentage of total absorbance of treated cell/absorbance of non treated cells.

Assay [2] deals with LAL-CUN-2. Briefly: Cell proliferation assay, LAL-CUN-2 (ALL). The class given is cell-based. As to the method:
as §1, §2, §3

Assay [3] has as its system OCI-AML-2. Briefly: Cell proliferation assay, OCI-AML-2 (AML). The class given is cell-based. The note with it: Homo sapiens, OCI-AML2, Table 5 comparison. The procedure: as §1, §2, §3
(§4) Compounds 3-04 and 3-07 were tested against different solid tumour and oncohematological cell lines using the cell proliferation protocol described above.

The subject of assay [4] is MV411. Briefly: Cell proliferation assay, MV411 / MV4-11 (AML). The class given is cell-based. The note with it: Homo sapiens, MV4-11, Table 5 comparison. The procedure:
as §1, §2, §3, §4

Assay [5] relates to JJN3. In words: Cell proliferation assay, JJN3 (MM). Format: cell-based. Conditions: Homo sapiens, JJN-3, Table 5 comparison. As to the method:
as §1, §2, §3

Assay [6] deals with U266. In words: Cell proliferation assay, U266 (MM). The class given is cell-based. The note with it: Homo sapiens, U-266, Table 5 comparison. As to the method: as §1, §2, §3
In assay [7] the target is T1, human G9a enzyme (Homo sapiens, UniProt Q96KQ7).
T1 sequence (Q96KQ7 1-1210): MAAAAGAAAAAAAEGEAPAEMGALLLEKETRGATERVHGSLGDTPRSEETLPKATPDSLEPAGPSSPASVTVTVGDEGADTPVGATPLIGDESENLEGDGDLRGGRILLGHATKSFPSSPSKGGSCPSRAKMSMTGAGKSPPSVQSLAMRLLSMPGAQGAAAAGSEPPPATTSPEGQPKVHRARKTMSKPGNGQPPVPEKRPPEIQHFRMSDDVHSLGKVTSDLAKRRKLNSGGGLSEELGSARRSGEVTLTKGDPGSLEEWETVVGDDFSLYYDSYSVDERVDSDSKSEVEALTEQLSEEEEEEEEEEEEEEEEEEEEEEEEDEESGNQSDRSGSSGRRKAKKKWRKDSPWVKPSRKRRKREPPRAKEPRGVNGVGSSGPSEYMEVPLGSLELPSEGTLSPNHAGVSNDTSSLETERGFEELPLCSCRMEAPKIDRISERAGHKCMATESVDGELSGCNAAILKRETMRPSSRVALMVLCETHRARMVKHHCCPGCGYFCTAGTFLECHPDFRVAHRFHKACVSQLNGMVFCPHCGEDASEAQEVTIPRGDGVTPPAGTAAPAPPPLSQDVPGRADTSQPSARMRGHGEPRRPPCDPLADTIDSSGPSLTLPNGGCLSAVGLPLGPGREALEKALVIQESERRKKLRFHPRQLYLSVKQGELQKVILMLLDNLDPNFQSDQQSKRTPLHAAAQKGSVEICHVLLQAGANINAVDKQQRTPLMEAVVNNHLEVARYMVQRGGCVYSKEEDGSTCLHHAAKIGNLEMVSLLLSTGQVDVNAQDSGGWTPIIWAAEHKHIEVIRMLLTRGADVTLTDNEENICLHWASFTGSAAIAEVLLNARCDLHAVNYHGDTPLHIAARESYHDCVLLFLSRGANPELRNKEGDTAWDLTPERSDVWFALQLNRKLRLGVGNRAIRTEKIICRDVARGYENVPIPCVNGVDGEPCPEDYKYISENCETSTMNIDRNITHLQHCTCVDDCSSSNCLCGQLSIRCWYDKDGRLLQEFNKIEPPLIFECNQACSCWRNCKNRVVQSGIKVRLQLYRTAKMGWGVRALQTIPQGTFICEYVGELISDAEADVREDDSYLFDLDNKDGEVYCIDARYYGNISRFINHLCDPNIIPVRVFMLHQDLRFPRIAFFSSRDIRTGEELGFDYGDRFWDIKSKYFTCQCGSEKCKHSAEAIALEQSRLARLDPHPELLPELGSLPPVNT
Briefly: G9a enzyme activity assay (TR-FRET). Format: biochemical. The procedure, abridged:
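Sf9-expressed human G9a (added as 1 nM solution), 0.5% DMSO final, with streptavidin-XL665 at 16 μM final and europium cryptate donor. After 1 h at room temperature, the 665/620 nm ratio was read against vehicle and no-enzyme controls. IC50 from a 4-parameter inhibition fit.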
(In general: In TR-FRET formats the signal depends on donor and acceptor labels being close together.)

Assay [8] deals with DNMT1 (Homo sapiens, UniProt P26358). In words: DNMT1 enzyme activity assay (TR-FRET, EPIgeneous methyltransferase assay). The class given is biochemical. The procedure, abridged: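 Human DNMT1, added at 1 nM, with 0.5% final DMSO; activity read by TR-FRET detection of the product SAH, where signal falls as SAH rises. The value is the 665/620 nm ratio, and IC50 comes from a 4-parameter inhibition fit.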

The test system of assay [9] is OCI-Ly3. In words: Cell proliferation assay, OCI-Ly3 (ABC-DLBCL). The note with it: Homo sapiens, 48 hours of treatment, Table 3. Format: cell-based. As to the method: as §1, §2, §3
For assay [10], the system named is OCI-Ly10. Briefly: Cell proliferation assay, OCI-Ly10 (ABC-DLBCL). Format: cell-based. Conditions: Homo sapiens, 48 hours of treatment, Table 3. The procedure: as §1, §2, §3
For assay [11], the system named is HepG2. In words: Cell proliferation assay, HepG2 (HCC). Format: cell-based. Conditions: Homo sapiens, 48 hours of treatment, Table 3. The procedure: as §1, §2, §3
Assay [12] deals with Hep3B. Briefly: Cell proliferation assay, Hep3B (HCC). The note with it: Homo sapiens, 48 hours of treatment, Table 3. The class given is cell-based. The procedure: as §1, §2, §3
Assay [13] has as its system PLC/PRF/5. Briefly: Cell proliferation assay, PLC/PRF/5 (HCC). Format: cell-based. Conditions: Homo sapiens, 48 hours of treatment, Table 3. The procedure:
as §1, §2, §3

Where only a bound is given, the exact number is not on record here.

Usually GI50 stands for the concentration at which growth is held to half of that of the control. A lower GI50 goes with more potent growth inhibition. The term IC50 denotes the concentration at which inhibition is half-maximal. A lower IC50 goes with greater potency in that assay.

DNMT1, sequence (P26358 whole entry): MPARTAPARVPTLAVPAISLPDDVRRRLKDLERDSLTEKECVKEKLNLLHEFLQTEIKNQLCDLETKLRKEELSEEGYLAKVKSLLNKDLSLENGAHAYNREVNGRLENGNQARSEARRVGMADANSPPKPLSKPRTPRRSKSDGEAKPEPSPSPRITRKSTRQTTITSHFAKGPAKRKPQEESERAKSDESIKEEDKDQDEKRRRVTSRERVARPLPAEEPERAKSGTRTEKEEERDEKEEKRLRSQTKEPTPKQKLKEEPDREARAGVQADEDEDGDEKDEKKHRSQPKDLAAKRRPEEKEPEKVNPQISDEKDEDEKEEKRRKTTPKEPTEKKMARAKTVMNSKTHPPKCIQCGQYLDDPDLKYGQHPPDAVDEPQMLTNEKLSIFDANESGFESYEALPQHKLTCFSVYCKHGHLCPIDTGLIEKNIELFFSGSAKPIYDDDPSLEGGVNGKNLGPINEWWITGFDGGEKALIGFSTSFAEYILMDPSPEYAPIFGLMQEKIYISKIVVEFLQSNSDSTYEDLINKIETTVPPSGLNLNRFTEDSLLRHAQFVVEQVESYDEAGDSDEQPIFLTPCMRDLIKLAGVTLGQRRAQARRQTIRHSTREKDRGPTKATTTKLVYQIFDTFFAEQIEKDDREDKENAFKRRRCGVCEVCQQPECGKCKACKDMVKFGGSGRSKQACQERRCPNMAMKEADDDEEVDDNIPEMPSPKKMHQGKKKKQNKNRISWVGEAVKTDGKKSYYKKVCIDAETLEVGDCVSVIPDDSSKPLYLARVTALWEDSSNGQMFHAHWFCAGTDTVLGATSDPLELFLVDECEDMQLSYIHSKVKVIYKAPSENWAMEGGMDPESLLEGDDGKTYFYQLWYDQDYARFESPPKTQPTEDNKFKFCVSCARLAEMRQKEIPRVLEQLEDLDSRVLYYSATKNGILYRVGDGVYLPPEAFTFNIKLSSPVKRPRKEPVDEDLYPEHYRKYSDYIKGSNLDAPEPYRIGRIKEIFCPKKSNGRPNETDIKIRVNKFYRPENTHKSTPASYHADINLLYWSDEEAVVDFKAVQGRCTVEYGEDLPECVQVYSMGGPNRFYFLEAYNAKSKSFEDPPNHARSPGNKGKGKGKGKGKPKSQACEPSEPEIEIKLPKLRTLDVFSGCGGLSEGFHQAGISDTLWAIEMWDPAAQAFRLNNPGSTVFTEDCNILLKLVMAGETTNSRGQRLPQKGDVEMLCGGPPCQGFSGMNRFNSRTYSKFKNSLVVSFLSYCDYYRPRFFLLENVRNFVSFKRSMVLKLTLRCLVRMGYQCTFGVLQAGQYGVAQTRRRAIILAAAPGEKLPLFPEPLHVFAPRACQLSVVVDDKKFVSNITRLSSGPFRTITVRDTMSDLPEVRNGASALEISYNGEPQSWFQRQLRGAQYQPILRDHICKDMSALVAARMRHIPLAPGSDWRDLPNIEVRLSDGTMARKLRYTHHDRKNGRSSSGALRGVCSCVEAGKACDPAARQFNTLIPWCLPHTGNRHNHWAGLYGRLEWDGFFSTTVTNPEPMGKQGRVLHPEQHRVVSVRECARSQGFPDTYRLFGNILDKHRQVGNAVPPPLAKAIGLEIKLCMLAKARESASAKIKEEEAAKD

With `Nc1ncn([C@@H]2O[C@H](CO)[C@@H](O)[C@H]2O)c(=O)n1` [5-azacytidine, reference compound], the 50% growth inhibitory concentration (GI50) in assay [1] (ALL, Table 5 comparison) was 1000 to 10000 nM; in [2] (ALL, Table 5 comparison) it was at least 10000 nM; in assay [3], at least 10000 nM; in assay [4], 1000 to 10000 nM; in assay [5], at least 10000 nM; in assay [6], 1000 to 10000 nM.

On to `COc1cc2c(NC3CCNCC3)cc(-c3ccc(C)o3)nc2cc1OCCCN1CCCC1` [Compound 3-08], for which the figures for the IC50 in [7] and in assay [8] were under 100 nM and 100 to 500 nM, respectively. Moreover, the GI50 in assay [1] (48 hours of treatment, Table 3) is 1000 to 10000 nM; in assay [2] (48 hours of treatment, Table 3), 1000 to 10000 nM; in assay [9], 1000 to 10000 nM; in [10] it was at most 10000 nM.

Consider `COc1cc2c(NC3CCN(C4CC4)CC3)cc(-c3ccc(C)o3)nc2cc1OCCCN1CCCC1` [Compound 3-20], for which the IC50 in assay [7] is under 100 nM; in assay [8] it was 100 to 500 nM. For the same compound, the GI50 lay in the range of 100 to 1000 nM in [1] (48 hours of treatment, Table 3); 1000 to 10000 nM in assay [2] (48 hours of treatment, Table 3); 100 to 1000 nM in assay [9]; 100 to 1000 nM in [10]; 100 to 1000 nM in assay [11]; 100 to 1000 nM in assay [12]. For the same compound, the GI50 in assay [13] was 100 to 1000 nM.

As to `COc1cc2c(NC3CCN(C)CC3)cc(-c3ccoc3)nc2cc1OCCCN1CCCC1` [Compound 3-27], the IC50 in [7] is under 100 nM; in assay [8], 1000 to 10000 nM. In addition, the GI50 is 1000 to 10000 nM in assay [1] (48 hours of treatment, Table 3); at most 10000 nM in assay [2] (48 hours of treatment, Table 3); at most 10000 nM in [9]; 100 to 1000 nM in assay [10].

Regarding `COc1cc2c(NC3CCN(C)CC3)cc(-c3ccc(C)[nH]3)nc2cc1OCCCN1CCCC1` [Compound 3-31], the IC50 in assay [7] is under 100 nM; in assay [8], 100 to 500 nM. In addition, the GI50 is 1000 to 10000 nM in [1] (48 hours of treatment, Table 3); at most 10000 nM in assay [2] (48 hours of treatment, Table 3); 100 to 1000 nM in assay [9]; 100 to 1000 nM in assay [10].

As for `COc1cc2c(NC3CCN(C)CC3)cc(-c3ccco3)nc2cc1OCCCN1CCCC1` [Compound 3-40], the IC50 in [7] is under 100 nM; in [8], 100 to 500 nM. The GI50 was under 100 nM in assay [1] (48 hours of treatment, Table 3); 100 to 1000 nM in [2] (48 hours of treatment, Table 3); under 100 nM in assay [9]; under 100 nM in assay [10].

On to `CCc1ccc(-c2cc(NC3CCN(C4CC4)CC3)c3cc(OC)c(OCCCN4CCCC4)cc3n2)o1` [Compound 3-48], for which the results for the IC50 in assay [7] and in [8] were under 100 nM and 100 to 500 nM, respectively. Also, the GI50 is 100 to 1000 nM in [1] (48 hours of treatment, Table 3); 1000 to 10000 nM in [9]; 100 to 1000 nM in [10]; 1000 to 10000 nM in assay [11]; 1000 to 10000 nM in assay [12]; at most 10000 nM in assay [13].

Source of the values: US9840500B2, “Compounds as dual inhibitors of histone methyltransferases and DNA methyltransferases” (FUNDACIÓN PARA LA INVESTIGACIÓN MÉDICA APLICADA, priority 2014, dated 2017).
